Experimental data: US10077293B2, “Antimicrobial peptide analogues derived from abalone (Haliotis discus) and antimicrobial pharmaceutical composition containing the same” (priority 2016, dated 2018)
Ends that are not written are not given here.

Key:
Assay in all cases: Ultrasensitive radial diffusion assay (URDA), antimicrobial activity
[1] = system: C. albicans; assay type: cell-based, Candida albicans
Experimental: (§1) Four species of Gram positive bacteria (Bacillus subtilis, Staphylococcus epidermidis, […] and Propionibacterium acnes), five species of Gram negative bacteria (E. coli D31, E. coli ML35p, Shigella flexneri, Pseudomonas aeruginosa and Vibrio parahaemolyticus) and one yeast species (Candida albicans) were used for experiments. The antimicrobial activity was measured by ultrasensitive radial diffusion assay (URDA) using two layers of media of different concentrations. First, the microorganisms were pre-cultured in each medium for 18 hours and the concentration of the microorganisms was adjusted to 84% T (≈1×10^8 CFU/mL) using a colorimeter (Product No. 52-1210, BioMerieux, Inc., USA). Then, 0.5 mL of the diluted microorganism solution was added to an underlay gel containing 9.5 mL of 0.03% TSB, 1% type I agarose and 10 mM phosphate buffer (PB; pH 6.5) and plated and solidified on a plate after mixing well. After boring a well with a diameter of 2.5 mm on the solidified plate using a punch, 5 μL of each analogue solution was introduced. All the analogues were dissolved in 5 μL of 0.01% acetic acid to avoid any effect of solvent. After the analogue permeated into the medium, the microorganisms were cultured for 3 hours and an overlay gel containing 10 mL of 6% TSB, 1% type I agarose and 10 mM phosphate buffer (pH 6.5) was poured and solidified. Then, the microorganisms were cultured again for 18 hours at the same temperature. Next day, the antimicrobial activity was determined by measuring the size (diameter) of a clear zone formed around the well. Piscidin 1, an antimicrobial peptide derived from the mast cells of a hybrid striped bass, was used as a control.

[2] = system: S. epidermidis KCTC1917; assay type: cell-based, Staphylococcus epidermidis; conditions: S. epidermidis KCTC1917, Gram +
Experimental: as §1

[3] = system: B. subtilis KCTC1021; assay type: cell-based, Bacillus subtilis; conditions: B. subtilis KCTC1021, Gram +
Experimental: as §1

[4] = system: S. mutans KCCM40105; assay type: cell-based, Streptococcus mutans; conditions: S. mutans KCCM40105, Gram +
Experimental: as §1

[5] = system: P. aeruginosa KCTC2004; assay type: cell-based, Pseudomonas aeruginosa; conditions: P. aeruginosa KCTC2004, Gram −
Experimental: as §1

[6] = system: Propionibacterium acnes KCTC11946; assay type: cell-based; conditions: Propionibacterium acnes KCTC11946, Gram +
Experimental: as §1

[7] = system: E. coli D31; assay type: cell-based; conditions: E. coli D31, Gram −
Experimental: as §1

[8] = system: Shigella flexneri KCTC2009; assay type: cell-based; conditions: Shigella flexneri KCTC2009, Gram −
Experimental: as §1

[9] = system: Vibrio parahaemolyticus KCCM42264; assay type: cell-based
Experimental: as §1

[10] = system: E. coli ML35p; assay type: cell-based; conditions: Gram −
Experimental: as §1

[11] = C. albicans KCCM42264 (as printed in Table 2), yeast

| Substance | Minimal effective concentration ([1]; C. albicans KCTC7965, yeast) | Minimal effective concentration [2] | Minimal effective concentration [3] | Minimal effective concentration [4] | Minimal effective concentration [5] | Minimal effective concentration [6] | Minimal effective concentration [7] | Minimal effective concentration [8] | Minimal effective concentration [9] | Minimal effective concentration [10] | Minimal effective concentration [1, 11] |
| --- | --- | --- | --- | --- | --- | --- | --- | --- | --- | --- | --- |
| KLALKLLKLL-NH2 [SEQ ID NO 5, KLALKLLKLL] | 14.4 µg/mL | 16.4 µg/mL | 15.2 µg/mL | 10.5 µg/mL | 19.9 µg/mL | 16.6 µg/mL | 17.5 µg/mL | 17.9 µg/mL | 8.1 µg/mL | – | – |
| LKWLLKLLKLK-NH2 [SEQ ID NO 11, LKWLLKLLKLK] | 10.0 µg/mL | 16.0 µg/mL | 12.1 µg/mL | 12.0 µg/mL | 8.7 µg/mL | 13.1 µg/mL | 14.1 µg/mL | 11.2 µg/mL | 9.0 µg/mL | 15.0 µg/mL | – |
| KLLLKLLKLL-NH2 [SEQ ID NO 7, KLLLKLLKLL] | 12.1 µg/mL | 8.8 µg/mL | 11.2 µg/mL | 7.8 µg/mL | 11.2 µg/mL | 11.9 µg/mL | 13.2 µg/mL | 10.4 µg/mL | 6.8 µg/mL | 8.8 µg/mL | – |
| KLLLKLLKKLL-NH2 [SEQ ID NO 8, KLLLKLLKKLL] | 11.8 µg/mL | 9.6 µg/mL | 10.3 µg/mL | 7.4 µg/mL | 12.5 µg/mL | 12.3 µg/mL | 14.2 µg/mL | 10.7 µg/mL | 7.1 µg/mL | 9.8 µg/mL | – |
| LLWKLLKLLLK-NH2 [SEQ ID NO 2, LLWKLLKLLLK] | – | 18.4 µg/mL | 16.0 µg/mL | 16.3 µg/mL | 14.2 µg/mL | 18.0 µg/mL | 16.2 µg/mL | 11.6 µg/mL | 14.0 µg/mL | 12.1 µg/mL | 17.0 µg/mL |
| AAWKLLKALAKA-NH2 [SEQ ID NO 1, AAWKLLKALAKA] | – | 17.3 µg/mL | 20.0 µg/mL | 20.3 µg/mL | 36.0 µg/mL | 25.0 µg/mL | 22.0 µg/mL | 28.0 µg/mL | 26.3 µg/mL | 23.0 µg/mL | 42.0 µg/mL |
| KAAAKAAKAA-NH2 (C-terminus assumed) [SEQ ID NO 6, KAAAKAAKAA] | >50.0 µg/mL | >50.0 µg/mL | >50.0 µg/mL | >50.0 µg/mL | >50.0 µg/mL | >50.0 µg/mL | >50.0 µg/mL | >50.0 µg/mL | >50.0 µg/mL | >50.0 µg/mL | – |
| KLLKKLLKLL-NH2 [SEQ ID NO 9, KLLKKLLKLL] | 14.0 µg/mL | 14.0 µg/mL | 15.7 µg/mL | 9.0 µg/mL | 17.8 µg/mL | 18.5 µg/mL | 18.9 µg/mL | 15.4 µg/mL | 9.5 µg/mL | 17.2 µg/mL | – |
